pIC50: −log10 of the molar value.
Tests used:
[1] = Antitumor activity against human QGY7701 cells by MTT assay; assay type: functional, cell-based
HeLa = test: Antitumor activity against human HeLa cells by MTT assay; assay type: functional, cell-based

O=c1[nH]cc(F)c(=O)[nH]1 [FLUOROURACIL]
pIC50 [1]: 4.17 | pIC50 (HeLa): 4.19

— ChEMBL document CHEMBL1155404, “Synthesis, chiral resolution, and determination of novel furan lignan derivatives with potent anti-tumor activity” (Bioorg Med Chem Lett, 2010)
